How the values were obtained:
Type in all cases: cell-based, human
VSMCs [1] = experiment: VSMC proliferation assay by BrdU incorporation; details: 10^−7 M, 48-h treatment, mean±SEM; control 0.81±0.03
Protocol: VSMCs were grown in 96-well plates or 8-well chamber slides and incubated with 10^−7 M of MPA (Sigma-Aldrich) or ETO (Organon) or P4 (Sigma-Aldrich) or vehicle±rCCL2 (R&D Systems)±STAT1 inhibitor, 5′-methyl-thioadenosine (MTA; EMD Millipore) (19) for 48 or 72 h. VSMCs were then analyzed for apoptosis by an ELISA based apoptosis kit (Roche) or cleaved-caspase 3 immunostaining. VSMC proliferation was measured by BrdU incorporation Kit (Cell Signaling). (See further details in SI Materials and Methods).
VSMCs were thawed and cultured in T-75 cell culture flasks in medium 231 (M231; Life Technologies) with smooth muscle growth supplement (5% FBS; 2 ng/mL human basic fibroblast growth factor, 0.5 ng/mL human epidermal growth factor, 5 ng/mL heparin, 0.2 μg/mL insulin and 5 μg/mL BSA; Life Technologies) with 100 U/mL penicillin, 100 μg/mL streptomycin, and 0.25 μg/mL fungizone. Confluent VSMCs were washed twice with 1×PBS to remove residual serum, and then passaged (5,000 cells per well) in 96-well plates and incubated in parallel in M231 with 1% charcoal striped FBS with 0.1% ethanol (vehicle, control), 10^−7 M MPA (Sigma-Aldrich), 10^−7 M ETO (Organon), or 10^−7 M P4 (Sigma-Aldrich)±rCCL2 (monocyte chemotactic protein-1; R&D Systems)±STAT1 inhibitor, 5′-methyl-thioadenosine (MTA; EMD Millipore) for 48 or 72 h.
BrdU (Cell Signaling) 1× in 100-μL M231 was added to each well during the final 24 h of incubation. At the end of 48- or 72-h incubation period, medium was removed and the wells washed twice with ice-cold PBS. VSMC proliferation was measured using BrdU cell proliferation Kit (Cell Signaling) at room temperature. Cells was incubated in 100 μL per well of the fixing/denaturing solution for 30 min, and then replaced by 100 μL per well BrdU detection antibody solution for 1 h. Following three rinses with wash buffer, plates were incubated in HRP-conjugated secondary antibody (100 μL per well) for 30 min. After three additional rinses with wash buffer, tetramethylbenzidine substrate solution (100 μL per well) was added for 20 min and the reaction stopped by adding 100 μL per well STOP solution. Absorbance was measured at 450 nm using Spectra Max190 microplate reader (Molecular Devices) to detect BrdU incorporation in each well.

STAT1 = experiment: Western blot of total and phosphorylated STAT1 in VSMCs; details: VSMCs treated for 15 min, vs control
Protocol: (§1) VSMCs were thawed and cultured in medium 231 (M231; Life Technologies) with smooth muscle growth supplement (5% FBS; 2 ng/mL human basic fibroblast growth factor, 0.5 ng/mL human epidermal growth factor, 5 ng/mL heparin, 0.2 μg/mL insulin and 5 μg/mL BSA; Life Technologies) with 100 U/mL penicillin, 100 μg/mL streptomycin, 0.25 μg/mL fungizone. Confluent VSMCs were washed twice with 1×PBS to remove residual serum, passaged in 96-well or 6-well plates and incubated in parallel in M231 with 1% charcoal striped FBS with 0.1% ethanol (vehicle, control) or 10^−7 M MPA (Sigma-Aldrich) or 10^−7 M ETO (Organon) or 10^−7 M P4 (Sigma-Aldrich) for 15 min, 6, 48, and 72 h. VSMCs were then washed with ice-cold PBS and stored at −80° C. for further RNA and protein analyses.
To confirm inhibition of STAT1 signaling in LAPC-treated VSMCs, detected by IPA, cell lysates from VSMCs were run in 10% Tris-HCl gel (Bio-Rad). Transfer onto membrane, blocking, washing, chemiluminescence development, and stripping/reprobing were performed as described previously (35). The membrane was incubated with antitotal STAT1 or antiphospho-STAT1 rabbit monoclonal antibodies (Cell Signaling) and then with peroxidase-conjugated goat anti-rabbit IgG (Vector Labs). Signals were developed by a chemiluminescence kit (GE Healthcare).

VSMCs [2] = experiment: Whole genome microarray analysis (Illumina HumanHT-12 v4) of cultured VSMCs treated with progestins; details: VSMCs treated by MPA
From the text: Cultured VSMCs (n=3) treated with control medium or medium containing medroxyprogesterone acetate (MPA, 10^−7 M), or etonogestrel (ETO, 10^−7 M) were processed for whole genome analyses using Illumina Human microarray kit. After qRT-PCR confirmation of several up and down regulated genes from microarray data, Ingenuity Pathway Analysis (IPA) determined relevant upstream signaling of LAPC altered gene expression. To investigate the role of genes and relevant signaling molecules identified by IPA, VSMCs (n=3) treated with MPA or ETO±1 or 10 ng/ml recombinant CCL2 (rCCL2)±STAT1 inhibitor, 5′-methyl-thioadenosine (MTA, 100 μM) were analyzed by BrdU incorporation proliferation, TUNEL based ELISA apoptosis and Transwell insert migration assays.
as §1
Total RNA was isolated using Qiagen miRNeasy Mini Kit (Qiagen) and RNeasy MinElute Cleanup Kit (Qiagen). The quality of isolated RNAs was confirmed using an Agilent 2100 Bioanalyzer. Microarray analysis was limited to those specimens in which RNA Integrity Number exceeded 8. Microarray processes were performed in the Keck Biotechnology Resource Laboratory at Yale University (New Haven, Conn.) using Illumina Human HT-12 v4 BeadChip (Illumina). Raw data without normalization were analyzed by GeneSpring GX12.5 software (Agilent Technologies-Silicon Genetics). Normalization was performed as described (35). Genes with a fold-change >1.25 and a P value<0.05 were considered differentially expressed. Ingenuity Pathway Analysis (IPA) software (Qiagen) explored molecular and biological networks related to differentially expressed genes.

CC(=O)O[C@]1(C(C)=O)CC[C@H]2[C@@H]3C[C@H](C)C4=CC(=O)CC[C@]4(C)[C@H]3CC[C@@]21C [MPA, medroxyprogesterone acetate]
BrdU incorporation (VSMCs [1]): 0.31±0.02 | phosphorylated levels of STAT1 (STAT1): partially reduced | total STAT1 levels (STAT1): not | Fold-change, ABI gene family, member 3 (NESH) binding protein (ABI3BP) (VSMCs [2]): −2.045 | Fold-change, Actin, γ 2, smooth muscle, enteric (ACTG2) (VSMCs [2]): 2.761 | Fold-change, Alcohol dehydrogenase 1A (class I), α polypeptide (ADH1A) (VSMCs [2]): 2.49 | Fold-change, Bradykinin receptor B1 (BDKRB1) (VSMCs [2]): −2.041 | Fold-change, Chemokine (C-C motif) ligand 2 (CCL2) (VSMCs [2]): −4.123 | Fold-change, Collectin subfamily member 12 (COLEC12) (VSMCs [2]): −2.177 | Fold-change, Complement factor B (CFB) (VSMCs [2]): −3.17 | Fold-change, Complement factor D (adipsin) (CFD) (VSMCs [2]): 2.794 | Fold-change, Cysteine-rich secretory protein LCCL domain containing 2, (CRISPLD2) (VSMCs [2]): 3.721 | Fold-change, DNA-damage regulated autophagy modulator 1 (DRAM1) (VSMCs [2]): −2.149 | Fold-change, Decorin, transcript variant A2 (DiCN) (VSMCs [2]): 2.515 | Fold-change, EF-hand domain family, member D1 (EFHD1) (VSMCs [2]): 2.294 | Fold-change, Fibrillin 2 (FBN2) (VSMCs [2]): 2.642 | Fold-change, Filaggrin (FLG) (VSMCs [2]): −2.306 | Fold-change, Glutathione peroxidase 3 (plasma) (GPX3) (VSMCs [2]): 2.827 | Fold-change, H19, imprinted maternally expressed transcript noncoding RNA (H19) (VSMCs [2]): 5.441 | Fold-change, Hypothetical protein FLJ40504 (FLJ40504) (VSMCs [2]): −2.331 | Fold-change, Indolethylamine N-methyltransferase (INMT) (VSMCs [2]): 2.187 | Fold-change, Insulin-like growth factor binding protein 2, 36 kDa (IGFBP2) (VSMCs [2]): 2.367 | Fold-change, Interleukin 1, β (IL1B) (VSMCs [2]): −2.325 | Fold-change, LY6/PLAUR domain containing 1, transcript variant 1 (LYPD1) (VSMCs [2]): −2.21 | Fold-change, Latexin (LXN) (VSMCs [2]): −2.939 | Fold-change, Leptin (obesity homolog, mouse) (LEP) (VSMCs [2]): 4.042 | Fold-change, Matrix Gla protein, transcript variant 1 (MGP) (VSMCs [2]): 3.615 | Fold-change, Matrix Gla protein, transcript variant 2 (MGP) (VSMCs [2]): 3.221 | Fold-change, Natriuretic peptide precursor B (NPPB) (VSMCs [2]): −2.371 | Fold-change, PREDICTED: keratin 18 pseudogene 13 (KRT18P13) (VSMCs [2]): −2.209 | Fold-change, PREDICTED: similar to LYPDC1 protein (LOC100134073) (VSMCs [2]): −2.401 | Fold-change, Pleckstrin homology-like domain, family A, member 1 (PHLDA1) (VSMCs [2]): −2.17 | Fold-change, Potassium voltage-gated channel, shaker-related subfamily, 0 member 1, transcript variant2 (KCNAB1) (VSMCs [2]): −2.055 | Fold-change, Prostaglandin-endoperoxide synthase 1, transcript variant 2 (PTGS1) (VSMCs [2]): 2.437 | Fold-change, Retinoic acid receptor responder (tazarotene induced) 1, transcript variant 1, (RARRES1) (VSMCs [2]): −4.061 | Fold-change, Retinoic acid receptor responder (tazarotene induced) 1, transcript variant 2, (RARRES1) (VSMCs [2]): −2.994 | Fold-change, Superoxide dismutase 2, mitochondrial, transcript variant 2, (SOD2) (VSMCs [2]): −2.208 | Fold-change, Sushi domain containing 2 (SUSD2) (VSMCs [2]): 2.901 | Fold-change, Transmembrane protein 119 (TMEM119) (VSMCs [2]): 2.258 | Fold-change, UDP-N-acetyl-alpha-D-galactosamine:polypeptide N-acetylgalactosaminyltransferase 12 (GALNT12) (VSMCs [2]): −2 | Fold-change, Wingless-type MMTV integration site family, member 5A (WNT5A) (VSMCs [2]): 2.218 | Fold-change, Collagen, type VIII, α 1, transcript variant 2 (COL8A1) (VSMCs [2]; table entry 11): 2.628 | Fold-change, Collagen, type VIII, alpha 1, transcript variant 2 (COL8A1) (VSMCs [2]; table entry 14): 2.439
